From PubChem BioAssay AID1626 (SRMLSC, 2009)

Tested on: M. tuberculosis H37Rv growth inhibition
Assay: M. tuberculosis H37Rv growth inhibitors, H37Rv strain (AID 1626)
Conditions: for IC90: measured here: IC90 against H37Rv; for CC50: measured here: Vero cell cytotoxicity

| Compound | IC90 | IC50 | CC50 |
| --- | --- | --- | --- |
| O=C(Nc1nc2ccccc2[nH]1)c1cccc([N+](=O)[O-])c1 | > 100 µM | – | – |
| Cc1ccc2nc(/N=C(\N)NC(=O)NC3CCCCC3)nc(C)c2c1 | 6.73 µM | 5.92 µM | 25.3 µM |
| COc1ccccc1C(=O)Nc1nnc(-c2ccc(Cl)cc2)o1 | > 100 µM | 16.9 µM | > 40 µM |
| Cc1cc(N2CCN(c3ccccc3)CC2)nc(-n2nc(C)cc2C)n1 | 47.3 µM | 8.84 µM | 18.3 µM |
| CCOC(=O)c1c(NC(=O)COc2ccccc2)sc2c1CC(C)(C)NC2(C)C | 26.8 µM | 20.1 µM | > 40 µM |
| COC(=O)c1cccc(NC(=O)NC23CC4CC(CC(C4)C2)C3)c1 | > 100 µM | 23.9 µM | > 40 µM |
| O=C(/C=C/c1cccnc1)/C=C/c1cccnc1 | 1.33 µM | 0.909 µM | 3.09 µM |
| FC(F)(F)c1ccc(CN2C[C@@H]3C(c4ccc(Cl)nc4)C4(c5cccnc5)CC3(C4)[C@H]2c2ccccc2)cc1 (stereo partly specified) | 18 µM | 8.98 µM | > 40 µM |
| Cc1ccc(-c2ccc(/C=C3\SC(N4CCOCC4)=NC3=O)o2)cc1 | > 100 µM | 23.5 µM | > 40 µM |
| COc1ccc(/C=C/C(=O)Oc2ccc(C)c(C)c2)cc1OC | > 100 µM | 9.43 µM | – |
| CCCCNC(=O)COC(=O)c1cc(Br)ccc1Cl | 10.5 µM | 4.35 µM | – |
| Cc1cccc(CN2C(=O)[C@@H]3Cc4c([nH]c5ccccc45)C(C)(C)N3C2=O)c1 | 14.3 µM | 8.69 µM | > 40 µM |
| COc1ccc(-c2nnc(NC(=O)c3ccccc3C)o2)cc1 | > 100 µM | 0.944 µM | > 40 µM |
| CC(=O)Nc1ccc(NC(=O)c2ccc(C3SCC(=O)N3CCc3ccccc3)cc2)cc1 (stereo unspecified) | > 100 µM | – | – |
| CCCCc1ccc(NC(=O)c2cnccn2)cc1 | > 100 µM | 52.1 µM | > 40 µM |
| Cc1nc(N2CCN(c3ccccn3)CC2)c2c(C)c(C(=O)Nc3ccccc3F)sc2n1 | > 100 µM | 8.96 µM | > 40 µM |
| CC1CCc2nc(NC(=O)CN3CCN(c4ccccc4)CC3)sc2C1 (stereo unspecified) | > 100 µM | 24.6 µM | – |
| CCOc1ccc(N=Cc2c(O)n(-c3cc(C)cc(C)c3)c(=O)[nH]c2=O)cc1 | > 100 µM | < 0.195 µM | – |
| Cc1ccc2c(c1C)NC(=O)C21N2CCCC2C(C(=O)c2ccc3ccccc3c2)C12C(=O)Nc1ccccc12 (stereo unspecified) | > 100 µM | 39.3 µM | > 40 µM |
| CCCCCC(=O)Nc1ccc2ccccc2c1 | > 100 µM | < 0.195 µM | – |
| COc1cnc(-c2ccccn2)nc1Sc1ccccc1Cl | 6.23 µM | 1.94 µM | 7.16 µM |
| O=C(NCCc1c[nH]c2ccccc12)c1cc2ccccc2oc1=O | < 0.195 µM | < 0.195 µM | – |
| Cc1cc(Cl)ccc1OCCCC(=O)NO | > 100 µM | 28.6 µM | 35.7 µM |
| CCn1cc(C(=O)NCc2cccc(F)c2)c(=O)c2cc(F)c(N3CCN(C(=O)c4ccco4)CC3)cc21 | 6.52 µM | 2.69 µM | 27 µM |
| CC(C)(C)C1CCc2c(sc3nc(SCC(N)=O)nc(N)c23)C1 (stereo unspecified) | > 100 µM | 24.8 µM | > 40 µM |
| Cc1nc2ccc(NC(=O)N(C(C)C)C(C)C)cc2s1 | > 100 µM | 20.2 µM | – |
| COc1ccc(N/C=C2\CCOC2=O)cc1 | > 100 µM | – | – |

| Compound | IC90 | IC50 | CC50 |
| --- | --- | --- | --- |
| COc1ccc(C(=O)CNc2ccc3ccccc3c2)cc1 | > 100 µM | 4.74 µM | – |
| O=C(OCC#CCSc1nnc(-c2ccc([N+](=O)[O-])cc2)o1)c1cccs1 | 1.3 µM | < 0.195 µM | – |
| CC1CC(C)CN(C(=O)COC(=O)c2cc3ccccc3cc2O)C1 (stereo unspecified) | 4.29 µM | 0.592 µM | – |
| Cc1cc(C)n(-c2nc(N(c3ccccc3)c3ccccc3)nc(-n3nc(C)cc3C)n2)n1 | 10.4 µM | 2.76 µM | > 40 µM |
| C(=C\c1nccc2c1[nH]c1ccccc12)/c1ccccc1 | 11.3 µM | 8.41 µM | 29.4 µM |
| COc1ccc(CNc2ncnc3cc(Cl)ccc23)cc1 | > 100 µM | 58.5 µM | – |
| COC(=O)C(CC(C)C)NC(=O)/C=C/c1ccc(Cl)cc1 (stereo unspecified) | 6.5 µM | 3.88 µM | – |
| O=C(COc1ccc2c(C(F)(F)F)cc(=O)oc2c1)NCc1cccs1 | > 100 µM | 14.8 µM | – |
| Clc1ccc(SCc2cc(N3CCOCC3)nc(-c3ccccn3)n2)cc1 | 41.6 µM | 8.83 µM | 12.2 µM |
| CC(C)Cc1cc(C(=O)Nc2c(F)cc(F)cc2Br)no1 | 10.5 µM | 6.59 µM | – |
| COc1ccc(-c2csc(NC(C)c3nc4cc(Cl)c(N5CCCCC5)cc4n3CCCO)n2)cc1 (stereo unspecified) | > 100 µM | 12.7 µM | > 40 µM |
| CCCCCc1cc(=O)oc2c(C(CCN(CC)CC)c3ccc(N(C)C)cc3)c(OC)cc(OC)c12 (stereo unspecified) | 5.28 µM | 4.06 µM | 14.9 µM |
| FC(F)(F)c1nnc(-c2ccccc2)nc1Sc1ccccc1 | 25.3 µM | 21.9 µM | > 40 µM |
| CCOc1ccc(-c2csc(/C(C#N)=C\c3ccc(O)c([N+](=O)[O-])c3)n2)cc1 | 14.9 µM | 8.54 µM | 10.9 µM |
| CCCOC(=O)CSc1nnc(-c2cc(OC)c(OC)c(OC)c2)o1 | 1.83 µM | 0.728 µM | – |
| CCSCc1nnc(SCC(=O)Nc2cccc(SC)c2)n1C | > 100 µM | 43.5 µM | – |
| Cc1cc([N+](=O)[O-])ccc1NC(=O)c1ccc(NC(=O)C(C)C)cc1 | > 100 µM | 12.3 µM | – |
| COc1ccc(N/C=C/C(=O)c2sc(-c3ccccc3)nc2C)cc1 | > 100 µM | 69.2 µM | > 40 µM |
| CN1Cc2c(N3CCOCC3)nc3sc(C(=O)c4ccc(Br)cc4)c(N)c3c2CC1(C)C | 6.26 µM | 5.56 µM | 10.2 µM |
| COc1ccc(NCc2ccc([N+](=O)[O-])s2)cc1 | > 100 µM | 59.4 µM | – |
| O=C(c1cc2nc(-c3ccc(F)cc3)cc(C(F)(F)F)n2n1)N1CCCCC1c1cccnc1 (stereo unspecified) | 14 µM | 9.18 µM | > 40 µM |
| c1ccc(-c2cc3c(NCC4COc5ccccc5O4)ncnc3s2)cc1 (stereo unspecified) | > 100 µM | – | > 40 µM |
| O=C(CSc1ccc([N+](=O)[O-])cn1)Nc1ccc2c(c1)OCCO2 | > 100 µM | 51.3 µM | – |
| Cc1nn(-c2ccccc2)c2c1C(c1ccc([N+](=O)[O-])cc1)N1C(=N2)C(=O)Nc2ccccc21 (stereo unspecified) | > 100 µM | 19.1 µM | > 40 µM |
| O=c1[nH][nH]cc1C=Nc1ccc(Oc2ccccc2)cc1 | > 100 µM | 15.4 µM | – |
| Cc1nnc(NC(=O)c2ccc3ccccc3n2)s1 | > 100 µM | 42.5 µM | > 40 µM |
| CCCCc1c(C)c(C#N)c2[nH]c3ccccc3n2c1=O | > 100 µM | 23.2 µM | 22.9 µM |

| Compound | IC90 | IC50 | CC50 |
| --- | --- | --- | --- |
| O=[N+]([O-])c1ccc(/C=N/n2c(CO)nc3ccccc32)s1 | 1.1 µM | 0.523 µM | > 40 µM |
| CCOc1ccc(N2C(=O)c3ccc(C(=O)OCC(=O)N(CC)C4CCS(=O)(=O)C4)cc3C2=O)cc1 (stereo unspecified) | > 100 µM | – | – |
| COc1cc(/C=C/C(=O)c2c(O)n(CCc3ccccc3)c(=O)[nH]c2=O)ccc1O | 11.3 µM | 7.57 µM | 20.2 µM |
| Cc1cccc(N2CCN(C(=O)c3ccc4nc(N5CCCCC5)sc4c3)CC2)c1C | 11.2 µM | 7.98 µM | > 40 µM |
| O=[N+]([O-])c1cc(-c2n[nH]c(-c3ccccc3)n2)cc([N+](=O)[O-])c1 | > 100 µM | 28.4 µM | > 40 µM |
| Cc1ccc2nc(-c3ccccn3)c(Nc3ccccc3C)n2c1 | 2.24 µM | 1.52 µM | 3.42 µM |
| Cc1cc(NC(=O)c2cc(-c3ccncc3)nc3c(C)cccc23)no1 | 74.3 µM | 48.1 µM | 12.9 µM |
| COc1ccc(NC(=O)CCc2nc(-c3ccccc3F)no2)cc1 | > 100 µM | – | – |
| COCCCN=C1NN=C(c2cc(C)n(-c3ccccc3F)c2C)CS1 | 7.08 µM | 5.21 µM | 21.7 µM |
| CCC(C)NC(=O)c1c(N)n(/N=C/c2ccccn2)c2nc3ccccc3nc12 (stereo unspecified) | 7.46 µM | 5.18 µM | > 40 µM |
| CC(C)c1ccc(CNC(=O)C(=O)Nc2nccs2)cc1 | > 100 µM | 49.8 µM | – |
| O=C(/C=C/c1ccccc1)C1C(=O)c2ccccc2C1=O | 26.5 µM | 23.5 µM | 32.1 µM |
| COc1ccc2cc(C(=O)C3CCCN(Cc4cccc(C)n4)C3)ccc2c1 (stereo unspecified) | 14.7 µM | 7 µM | > 40 µM |
| c1ccc(N2CCN(c3nc(NCc4ccco4)c4ccccc4n3)CC2)cc1 | 14.4 µM | 9.66 µM | > 40 µM |
| O=c1[nH]c(-c2ccccn2)nc(C(F)(F)F)c1Br | 1.02 µM | 0.487 µM | 33.4 µM |
| Oc1cc(-c2ccccc2)c2ccccc2c1 | > 100 µM | 27.2 µM | > 40 µM |
| COc1cccc(CNCCc2c[nH]c3ccccc23)c1OCc1ccccc1F | 11.3 µM | 7.08 µM | 14.4 µM |
| CCOC(=O)CSc1nnc(-c2cccc(Br)c2)o1 | 15.2 µM | 0.486 µM | – |
| O=C(Nc1ccc2oc(-c3cccnc3)nc2c1)c1ccc([N+](=O)[O-])o1 | > 100 µM | < 0.195 µM | 1.32 µM |
| Cc1cccc(CN2CCCC(C(=O)c3cccc(OC(C)C)c3)C2)n1 (stereo unspecified) | > 100 µM | 12.3 µM | > 40 µM |
| COc1ccc(N=Cc2c(O)c3ccccc3oc2=O)cc1 | > 100 µM | – | > 40 µM |
| O=c1c(C=Nc2ccc(Oc3ccccc3)cc2)c[nH]n1-c1cccc(Cl)n1 | > 100 µM | – | > 40 µM |
| CCc1ccc(-c2cc(C(F)(F)F)n3nc(C(=O)Nc4c(C)nn(Cc5ccc(F)cc5)c4C)cc3n2)s1 | > 100 µM | 16.2 µM | > 40 µM |
| CCCCCC(=O)c1ccc(O)cc1O | > 100 µM | 63.3 µM | – |
| CC(C)c1ccc(NC(=O)c2snc3ccc(Cl)cc23)cc1 | > 100 µM | 3.89 µM | > 40 µM |
